{
  "source": "patent US20230390386A1",
  "about": "“REPLICATION-DEFECTIVE VACCINES AND USES THEREOF” (priority 2020, published 2023)",
  "key": {"[1]": {"tested_on": "ToledoLuc strain of HCMV", "experiment": "ToledoLuc growth curve in MRC-5 cells after CM treatment of virus (bioluminescence)", "type": "cell-based, human cytomegalovirus", "description": "ToledoLuc treatment with CM: The human cytomegalovirus (HCMV) strain ToledoLuc, which contains a luciferase expression cassette, was used in this study and well-known to those of skill in the art. Cells of the MRC-5 human diploid fibroblast line were seeded into 12-well plates. […] After 2 hours of treatment with CM, ToledoLuc viruses were washed 3 times with cDMEM and added to MRC-5 cells at an MOI of 0.05 in triplicate wells. The control includes the ToledoLuc treated with the PET vehicle in a similar way. The growth kinetics of ToledoLuc was determined by bioluminescence assay. The luciferase activity of ToledoLuc virus was measured every 24 hours using IVIS-50.\nIn the present example, the effect of CM treatment on the HCMV was first examined using the modified ToledoLuc strain of HCMV. ToledoLuc was treated with different concentrations of CM for two hours at room temperature, washed to remove unbound CM and then allowed to grow in the MRCS cells."}, "[2]": {"tested_on": "HCMV gDNA", "experiment": "Analysis of CM-treated viral gDNA (agarose gel, EcoR1 digestion, 50° C. incubation)", "design": "species or system human cytomegalovirus", "description": "Analysis of CM and viral gDNA: To see any effect of CM on the HCMV gDNA, the gDNA was analyzed by agarose gel electrophoresis, restriction digestion, and thermal incubation at 50° C. The HCMV was grown in ARPE-19 cells and virus particles were purified through sucrose gradient using ultracentrifugation. HCMV gDNA was extracted and concentration was determined by OD at 260/280. Approximately, 10 μg of HCMV gDNA was incubated with 10 μM CM at RT for 1 hour and 10 μg of HCMV gDNA was treated with vehicle control without CM. The treated gDNA was analyzed by the agarose gel electrophoresis to see any effect of CM on the HCMV gDNA. In a separate experiment, the […] treated HCMV gDNA was incubated at 50° C. for 30 minutes to check the alkylation of DNA is thermolabile or not. Untreated HCMV gDNA was also treated similarly. In another, 3 μg of CM treated and untreated HCMV gDNA was digested with EcoR1 overnight at 37° C. and analyzed by 0.6% agarose gel electrophoresis.\nTo understand the mechanism behind CM mediated attenuation of the virus, CM-treated viral gDNA was analyzed using agarose gel electrophoresis, restriction digestion, and heat-labile fragmentation assays. The AD169 viral gDNA was treated with 1 μM CM for two hours at RT and then separated with a 0.6% agarose gel. Untreated AD169 viral gDNA was used as a control. […] To further understand the effect of CM on the viruses, viral gDNA was isolated and treated with CM for two hours at RT followed by digestion with the restriction enzymes EcoR1. […] However, the CM treated viruses were alkylated efficiently as compared to the control which was observed by the DNA fragmentation during incubation at 50° C. while control untreated viruses have intact DNA (FIG. 3C)."}, "[3]": {"tested_on": "MCMV-Luc", "experiment": "MCMV-Luc growth curve in NIH 3T3 cells after CM treatment", "type": "cell-based, mouse cytomegalovirus", "details": "two hours at RT, MOI 0.1", "description": "Previous studies in the current disclosure had been conducted in vitro. […] This study would identify a CM concentration required to attenuate the MCMV. For this assay, a luciferase-expressing version of MCMV, MCMV-Luc was used, and viral growth was measured as photon counts during intravital imaging using an in vivo imaging system (IVIS). The MCMV-Luc was treated with different concentrations of CM at RT for two hours and then added to NIH 3T3 cells established in 24 well plates in triplicate at a multiplicity of infection (MOI) of 0.1. The MCMV growth curve was determined by measuring the luciferase expression every 24 h using IVIS. […] This information was used to perform In vivo analysis of CM effect on the MCMV replication in the mice."}, "[4]": {"tested_on": "E. coli", "experiment": "CM treatment of E. coli, colony count on LB agar plates", "type": "cell-based", "details": "three hours at room temperature", "description": "CM treatment of E. coli: Overnight cultures of E. coli culture were diluted 200 times in LB media to make final volume of 1 ml and treated with different concentrations (100 μM, 10 μM, 1 μM, and 0.1 μM) of centanamycin for three hours at room temperature. The treated E. coli cells were then centrifuged at 10,000 rpm for 1 min, supernatant was removed and the pellet was resuspended in 100 μl of LB and plated on the LB agar plate without any antibiotic. The plates were then incubated at 37° C. for 16 hours. To determine the effect of centanamycin, the number of colonies were counted on each plate.\nFirst, a culture of E. coli that had been established by an overnight incubation was diluted 200 times in LB media to make final volume to be 1 ml, followed by treatment with different concentrations of centanamycin (100 μM, 10 μM, 1 μM, and 0.1 μM) for three hours at room temperature. The treated cells were then centrifuged at 10,000 rpm for 1 min, supernatant was removed and the pellet was resuspended in 100 μl of LB and plated on LB agar plates without any antibiotic. The plates were then incubated at 37° C. for 16 hours. To determine the effect of centanamycin, the number of colonies on each plate were counted (FIGS. 6A-6B). […] Some of these bacteria were replication-defective and attenuated, making them suitable for use as vaccines."}, "[5]": {"tested_on": "E. coli", "experiment": "E. coli growth assay (OD) after CM treatment", "type": "cell-based", "details": "two hours at RT", "description": "[…] Replicate samples were performed in triplicate. The treated bacterial cells were then added to 96 well, round-bottom plates, which were then incubated at 37° C. in a shaking incubator. The bacterial OD was measured in Glomax Explorer (Promega) every hour to determine the bacterial growth.\nIn order to observe the effect of CM on the rate of bacterial growth, a series of studies were conducting observing cultures of treated E. coli (FIG. 7). […] Each treatment condition was repeated in triplicate. The treated E. coli were then added to 96 well round-bottom plates, and cultured at 37° C. in a shaking incubator. The bacterial OD was measured by a Glomax Explorer (Promega) every hour to determine the rate bacterial growth. […] Each data point on the graph in FIG. 7 represents the average of three separate measurements."}},
  "data": [
    {"smiles": "COc1cc2cc(C(=O)Nc3cc(N)c4ccccc4c3CCCl)[nH]c2c(OC)c1OC", "note": "[CM, centanamycin]", "values": [
      {"measurement": "ToledoLuc infection and replication (luciferase activity)", "setting": "[1]; virus treated with 0.01 μM-0.001 μM CM", "value": "allows the virus to grow and replicate in the infected cells"},
      {"measurement": "ToledoLuc infection and replication (luciferase activity)", "setting": "[1]; virus treated with 0.1 μM CM, 2 hours at RT", "value": "allow the virus to infect the cells but did not replicate"},
      {"measurement": "ToledoLuc infection and replication (luciferase activity)", "setting": "[1]; virus treated with 1 μM CM, 2 hours at RT, MRC5 cells, 9 days post-infection", "value": "did not grow and was replication-defective"},
      {"measurement": "ToledoLuc infection and replication (luciferase activity)", "setting": "[1]; virus treated with 10 μM CM, 2 hours at RT, MRC5 cells", "value": "neither replicate nor infects the cells"},
      {"measurement": "ToledoLuc infection and replication (luciferase activity)", "setting": "[1]; virus treated with 100 μM CM, 2 hours at RT, MRC5 cells", "value": "neither replicate nor infects the cells"},
      {"measurement": "Viral gDNA bands on 0.6% agarose gel, treated versus untreated", "setting": "[2]; AD169 viral gDNA, 1 μM CM, two hours at RT", "value": "no big differences in the viral gDNA bands, mobility, and gel pattern"},
      {"measurement": "EcoR1 digestion pattern of CM treated viral gDNA", "setting": "[2]; CM two hours at RT, then EcoR1", "value": "no major missing bands"},
      {"measurement": "Thermolabile alkylation: state of CM treated viral DNA on incubation at 50° C.", "setting": "[2]; incubation at 50° C.", "value": "experienced fragmentation at 50 °C"},
      {"measurement": "MCMV-Luc infection and replication (luciferase expression)", "setting": "[3]; virus treated with 0.01 μM CM", "value": "able to grow and replicate but slower than untreated"},
      {"measurement": "MCMV-Luc infection and replication (luciferase expression)", "setting": "[3]; virus treated with 1.0 μM CM", "value": "allowed the virus to infect host cells but not replicate"},
      {"measurement": "MCMV-Luc infection and replication (luciferase expression)", "setting": "[3]; virus treated with 10 μM CM", "value": "did not allow the MCMV-Luc to infect the cells"},
      {"measurement": "E. coli colonies on LB agar plate after 16 hours", "setting": "[4]; 0.1 μM", "value": "reduce the number of bacterial colonies on the agar plate in a dose dependent manner"},
      {"measurement": "E. coli colonies on LB agar plate after 16 hours", "setting": "[4]; 1 μM", "value": "reduce the number of bacterial colonies on the agar plate in a dose dependent manner"},
      {"measurement": "E. coli colonies on LB agar plate after 16 hours", "setting": "[4]; 10 μM", "value": "reduce the number of bacterial colonies on the agar plate in a dose dependent manner"},
      {"measurement": "E. coli colonies on LB agar plate after 16 hours", "setting": "[4]; 100 μM", "value": "did not grow on the LB agar plate"},
      {"measurement": "E. coli growth in culture (OD)", "setting": "[5]; 0.01 μM CM", "value": "able to grow slowly in the culture"},
      {"measurement": "E. coli growth in culture (OD)", "setting": "[5]; 0.1 μM CM", "value": "able to grow slowly in the culture"},
      {"measurement": "E. coli growth in culture (OD)", "setting": "[5]; 10 μM CM", "value": "did not grow"},
      {"measurement": "E. coli growth in culture (OD)", "setting": "[5]; 100 μM CM", "value": "did not grow in the culture"}
    ]}
  ]
}
